Key:
[1] = target: T1, Phosphatidylinositol 4,5-bisphosphate 3-kinase catalytic subunit gamma isoform (Homo sapiens, UniProt P48736); assay: Inhibition of PI3Kgamma by high throughput chemoproteomics binding assay
[2] = target: Phosphatidylinositol 4,5-bisphosphate 3-kinase catalytic subunit alpha isoform (Homo sapiens, UniProt P42336); assay: Inhibition of PI3Kalpha by high throughput chemoproteomics binding assay
[3] = target: T2, Phosphatidylinositol 4,5-bisphosphate 3-kinase catalytic subunit delta isoform (Homo sapiens, UniProt O00329); assay: Inhibition of PI3Kdelta by high throughput chemoproteomics binding assay
T2 sequence (O00329 whole entry): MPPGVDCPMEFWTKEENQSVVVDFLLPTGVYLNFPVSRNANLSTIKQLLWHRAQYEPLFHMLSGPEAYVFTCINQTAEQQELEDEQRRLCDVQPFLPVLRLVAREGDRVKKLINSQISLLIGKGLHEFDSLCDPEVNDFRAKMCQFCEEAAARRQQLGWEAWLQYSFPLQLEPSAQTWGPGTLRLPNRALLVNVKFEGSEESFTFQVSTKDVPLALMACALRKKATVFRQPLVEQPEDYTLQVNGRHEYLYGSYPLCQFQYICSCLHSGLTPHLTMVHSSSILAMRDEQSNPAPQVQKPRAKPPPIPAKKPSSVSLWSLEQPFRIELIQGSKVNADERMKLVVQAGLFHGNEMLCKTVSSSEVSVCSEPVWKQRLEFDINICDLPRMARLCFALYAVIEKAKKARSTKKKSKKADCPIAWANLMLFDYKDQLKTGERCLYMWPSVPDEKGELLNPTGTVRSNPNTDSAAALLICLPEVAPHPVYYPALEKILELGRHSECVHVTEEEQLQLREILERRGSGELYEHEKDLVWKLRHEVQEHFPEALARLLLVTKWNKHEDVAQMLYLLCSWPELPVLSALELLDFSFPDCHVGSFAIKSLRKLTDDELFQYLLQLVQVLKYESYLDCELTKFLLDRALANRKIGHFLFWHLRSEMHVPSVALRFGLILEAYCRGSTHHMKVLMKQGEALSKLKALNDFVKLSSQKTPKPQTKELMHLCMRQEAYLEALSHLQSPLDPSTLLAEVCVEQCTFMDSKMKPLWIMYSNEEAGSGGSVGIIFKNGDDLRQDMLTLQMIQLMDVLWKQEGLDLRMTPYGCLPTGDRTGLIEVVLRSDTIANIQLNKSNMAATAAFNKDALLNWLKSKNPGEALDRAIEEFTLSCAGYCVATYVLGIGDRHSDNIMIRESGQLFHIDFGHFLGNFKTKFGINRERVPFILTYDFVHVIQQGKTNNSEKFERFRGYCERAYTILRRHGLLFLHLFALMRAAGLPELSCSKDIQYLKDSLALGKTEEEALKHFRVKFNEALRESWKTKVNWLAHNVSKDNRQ

[4] = target: Phosphatidylinositol 4,5-bisphosphate 3-kinase catalytic subunit beta isoform (Homo sapiens, UniProt P42338); assay: Inhibition of PI3Kbeta by high throughput chemoproteomics binding assay
[5] = target: T1, Phosphatidylinositol 4,5-bisphosphate 3-kinase catalytic subunit gamma isoform; assay: Inhibition of PI3Kgamma assessed as inhibition of C5a-induced AKT phosphorylation at Ser473 by cell based assay
[6] = Half life in rat microsomes; assay type: ADME, Microsome
[7] = Half life in human microsomes; assay type: ADME, Microsome
[8] = Half life in mouse microsomes; assay type: ADME, Microsome
[9] = Protein binding in plasma; assay type: ADME, cell-free; details: read-out: PPB
Homo sapiens [10] = organism: Homo sapiens; assay: Selectivity ratio of IC50 for PI3Kalpha to IC50 for PI3Kgamma
Homo sapiens [11] = organism: Homo sapiens; assay: Selectivity ratio of IC50 for PI3Kbeta to IC50 for PI3Kgamma
Homo sapiens [12] = organism: Homo sapiens; assay: Selectivity ratio of IC50 for PI3Kdelta to IC50 for PI3Kgamma

Sequence of Phosphatidylinositol 4,5-bisphosphate 3-kinase catalytic subunit beta isoform (P42338 whole entry, canonical isoform): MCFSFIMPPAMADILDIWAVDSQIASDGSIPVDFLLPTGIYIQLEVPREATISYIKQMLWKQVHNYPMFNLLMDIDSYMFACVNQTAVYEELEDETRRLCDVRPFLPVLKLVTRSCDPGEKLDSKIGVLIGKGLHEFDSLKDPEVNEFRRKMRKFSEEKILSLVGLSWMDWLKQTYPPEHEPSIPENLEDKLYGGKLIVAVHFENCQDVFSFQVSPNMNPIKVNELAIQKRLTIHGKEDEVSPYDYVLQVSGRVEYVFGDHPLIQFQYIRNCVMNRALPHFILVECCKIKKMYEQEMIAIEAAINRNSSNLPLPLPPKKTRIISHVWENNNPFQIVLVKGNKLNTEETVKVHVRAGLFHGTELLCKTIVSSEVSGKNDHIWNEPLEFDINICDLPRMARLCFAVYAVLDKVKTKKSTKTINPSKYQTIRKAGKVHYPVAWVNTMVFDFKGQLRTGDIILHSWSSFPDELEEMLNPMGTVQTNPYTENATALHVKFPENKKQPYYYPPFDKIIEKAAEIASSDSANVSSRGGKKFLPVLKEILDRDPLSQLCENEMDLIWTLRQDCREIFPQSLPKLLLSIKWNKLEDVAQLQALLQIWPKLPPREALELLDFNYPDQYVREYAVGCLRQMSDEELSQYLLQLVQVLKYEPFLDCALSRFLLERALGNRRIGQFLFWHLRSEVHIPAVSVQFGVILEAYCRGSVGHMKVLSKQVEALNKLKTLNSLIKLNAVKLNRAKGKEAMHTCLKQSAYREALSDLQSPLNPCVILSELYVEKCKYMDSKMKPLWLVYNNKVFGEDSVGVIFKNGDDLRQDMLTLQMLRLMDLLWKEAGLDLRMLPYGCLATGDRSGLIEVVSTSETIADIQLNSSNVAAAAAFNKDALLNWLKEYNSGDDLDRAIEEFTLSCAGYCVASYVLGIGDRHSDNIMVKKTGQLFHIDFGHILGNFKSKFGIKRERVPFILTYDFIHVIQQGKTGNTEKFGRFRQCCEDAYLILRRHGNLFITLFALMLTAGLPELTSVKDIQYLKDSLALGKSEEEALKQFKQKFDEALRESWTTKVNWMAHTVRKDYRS
Sequence of Phosphatidylinositol 4,5-bisphosphate 3-kinase catalytic subunit alpha isoform (P42336 whole entry, canonical isoform): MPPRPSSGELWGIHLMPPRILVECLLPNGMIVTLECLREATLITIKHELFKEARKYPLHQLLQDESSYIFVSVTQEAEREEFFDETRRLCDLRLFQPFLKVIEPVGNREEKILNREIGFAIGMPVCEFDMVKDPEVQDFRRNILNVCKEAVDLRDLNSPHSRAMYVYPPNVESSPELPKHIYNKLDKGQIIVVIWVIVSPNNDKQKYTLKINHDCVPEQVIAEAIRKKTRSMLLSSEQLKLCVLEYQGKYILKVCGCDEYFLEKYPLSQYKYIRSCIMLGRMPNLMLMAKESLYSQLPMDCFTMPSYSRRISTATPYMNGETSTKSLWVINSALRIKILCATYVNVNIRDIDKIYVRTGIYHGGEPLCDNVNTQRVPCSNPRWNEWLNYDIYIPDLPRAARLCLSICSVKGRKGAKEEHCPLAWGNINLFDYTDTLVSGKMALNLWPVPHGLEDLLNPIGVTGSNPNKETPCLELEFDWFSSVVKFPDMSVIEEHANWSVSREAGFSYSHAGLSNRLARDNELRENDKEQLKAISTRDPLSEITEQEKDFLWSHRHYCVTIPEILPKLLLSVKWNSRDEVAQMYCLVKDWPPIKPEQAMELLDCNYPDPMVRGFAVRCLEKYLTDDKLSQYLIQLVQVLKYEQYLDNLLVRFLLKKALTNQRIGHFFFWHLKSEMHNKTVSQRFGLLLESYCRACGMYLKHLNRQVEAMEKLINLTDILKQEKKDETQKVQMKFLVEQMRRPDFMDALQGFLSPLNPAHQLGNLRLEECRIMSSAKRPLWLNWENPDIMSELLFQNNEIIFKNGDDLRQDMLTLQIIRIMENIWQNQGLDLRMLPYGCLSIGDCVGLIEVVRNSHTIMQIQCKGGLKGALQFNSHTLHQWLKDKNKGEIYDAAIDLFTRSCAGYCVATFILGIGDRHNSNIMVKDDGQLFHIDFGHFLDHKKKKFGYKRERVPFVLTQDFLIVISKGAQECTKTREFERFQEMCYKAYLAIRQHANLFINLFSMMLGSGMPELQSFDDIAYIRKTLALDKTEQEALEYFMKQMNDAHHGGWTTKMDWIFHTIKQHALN
T1 sequence (P48736 whole entry, canonical isoform): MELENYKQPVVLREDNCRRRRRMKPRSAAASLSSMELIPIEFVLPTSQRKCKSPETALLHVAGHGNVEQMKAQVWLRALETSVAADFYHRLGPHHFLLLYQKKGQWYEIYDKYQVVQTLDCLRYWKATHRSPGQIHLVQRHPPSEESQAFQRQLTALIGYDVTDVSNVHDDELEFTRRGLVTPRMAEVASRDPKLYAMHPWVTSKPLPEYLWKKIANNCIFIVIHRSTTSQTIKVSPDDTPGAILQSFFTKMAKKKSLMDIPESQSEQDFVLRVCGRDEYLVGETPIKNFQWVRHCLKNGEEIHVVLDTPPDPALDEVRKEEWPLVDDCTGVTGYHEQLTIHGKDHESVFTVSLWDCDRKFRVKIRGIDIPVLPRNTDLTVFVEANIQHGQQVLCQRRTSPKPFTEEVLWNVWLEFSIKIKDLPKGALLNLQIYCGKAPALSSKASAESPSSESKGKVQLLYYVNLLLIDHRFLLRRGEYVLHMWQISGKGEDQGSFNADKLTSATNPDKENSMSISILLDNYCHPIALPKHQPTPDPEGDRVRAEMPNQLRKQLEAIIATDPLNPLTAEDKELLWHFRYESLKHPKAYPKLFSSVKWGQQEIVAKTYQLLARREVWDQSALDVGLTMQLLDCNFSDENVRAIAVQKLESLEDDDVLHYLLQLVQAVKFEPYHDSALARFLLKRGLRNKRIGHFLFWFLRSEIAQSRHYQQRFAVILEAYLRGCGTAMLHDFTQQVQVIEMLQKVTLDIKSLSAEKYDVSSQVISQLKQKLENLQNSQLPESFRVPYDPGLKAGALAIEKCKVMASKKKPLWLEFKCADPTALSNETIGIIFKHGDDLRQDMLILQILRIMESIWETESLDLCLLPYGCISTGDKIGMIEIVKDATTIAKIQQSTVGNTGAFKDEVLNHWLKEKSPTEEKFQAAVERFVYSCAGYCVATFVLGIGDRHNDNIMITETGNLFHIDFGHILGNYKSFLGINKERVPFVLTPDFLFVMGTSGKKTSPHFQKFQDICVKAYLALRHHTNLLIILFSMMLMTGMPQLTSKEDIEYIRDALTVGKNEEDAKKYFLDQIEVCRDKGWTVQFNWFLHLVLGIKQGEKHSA

Compound	IC50 [1] [µM]	IC50 [2] [µM]	IC50 [3] [µM]	also measured
CC(=O)Nc1nc2ccc(-c3cccc(-c4ccccc4)c3)cn2n1	> 3.98	> 20	> 100	
CC(=O)Nc1nc2c(F)cc(-c3cncc(S(C)(=O)=O)c3)cn2n1	0.126	> 20	> 20	IC50 [4]: 20 µM
CCCCNS(=O)(=O)c1cccc(-c2ccc3nc(NC(C)=O)nn3c2)c1	0.2	10	1.26	
CC(=O)Nc1nc2ccc(-c3ccc(S(C)(=O)=O)cc3)cn2n1	> 100	> 100	> 100	
CC(=O)Nc1nc2ccc(-c3cccc(S(=O)(=O)NCc4ccccc4)c3)cn2n1	0.501	> 100	6.31	
Nc1nc2ccc(-c3cncc(S(=O)(=O)Nc4ccc(Cl)cc4)c3)cn2n1	0.631	3.98	6.31	IC50 [5]: > 12.6 µM
CC(=O)Nc1nc2ccc(-c3cccc(NS(C)(=O)=O)c3)cn2n1	0.316	5.01	5.01	
Nc1nc2ccc(-c3cncc(NS(=O)(=O)c4ccc(Cl)cc4)c3)cn2n1	0.00631	0.158	0.398	IC50 [5]: 2 µM; fraction unbound [9]: < 0.01
COc1ccccc1-c1ccc2nc(NC(C)=O)nn2c1	3.98	> 100	31.6	Ratio IC50 (Homo sapiens [10]): > 30; Ratio IC50 (Homo sapiens [11]): > 30; Ratio IC50 (Homo sapiens [12]): 5; IC50 [4]: > 100 µM
CS(=O)(=O)Nc1cccc(-c2ccc3nc(NC(=O)C4CCCCC4)nn3c2)c1	0.316	> 100	0.501	
CC(C)(C)S(=O)(=O)c1cncc(-c2ccc3nc(N)nn3c2)c1	0.158	> 15.8	3.16	IC50 [5]: > 10 µM
CS(=O)(=O)c1cncc(-c2ccc3nc(N)nn3c2)c1				IC50 [5]: 2 µM
CC(=O)Nc1nc2ccc(-c3cncc(CS(N)(=O)=O)c3)cn2n1	0.00794	> 0.1	> 1	
CC(=O)Nc1nc2ccc(-c3ccncc3)cn2n1	1.58	1.58	> 100	
CC(=O)Nc1nc2ccc(-c3cncc(S(C)(=O)=O)c3)c(C)n2n1	1	> 100	> 39.8	IC50 [4]: 25.1 µM
COc1ccc(-c2ccc3nc(NC(C)=O)nn3c2)cc1	1	25.1	31.6	
CNS(=O)(=O)c1cccc(-c2ccc3nc(NC(C)=O)nn3c2)c1	0.251	> 10	1	
CN(C)c1nc2ccc(-c3cncc(S(C)(=O)=O)c3)cn2n1	3.16	> 100	> 100	
CC(=O)Nc1nc2c(C)cc(-c3cncc(S(C)(=O)=O)c3)cn2n1	0.1	> 39.8	> 5.01	IC50 [4]: 20 µM
CS(=O)(=O)c1cncc(-c2cc(C(F)(F)F)c3nc(N)nn3c2)c1	> 100	> 100	> 100	
CNC(=O)c1cccc(-c2ccc3nc(NC(C)=O)nn3c2)c1	0.631	> 50.1	> 100	
CNc1nc2ccc(-c3cncc(S(C)(=O)=O)c3)cn2n1	0.316	> 3.98	> 25.1	
CNS(=O)(=O)c1ccc(-c2ccc3nc(NC(C)=O)nn3c2)cc1	> 50.1	> 100	> 100	
CC(=O)N(C)c1nc2ccc(-c3cccc(S(C)(=O)=O)c3)cn2n1	> 31.6	> 100	> 100	
CC(=O)Nc1nc2ccc(-c3cccc(S(C)(=O)=O)c3)cn2n1	0.501	> 50.1	3.16	IC50 [5]: > 12.6 µM
COc1ccc(-c2ccc3nc(NC(C)=O)nn3c2)cc1S(=O)(=O)NCc1ccccc1	> 100	> 100	> 10	
CC(=O)Nc1nc2ccc(-c3sc(C)nc3C)cn2n1	> 12.6	6.31	> 100	
CC(=O)Nc1nc2ccc(-c3cncc(S(C)(=O)=O)c3)cn2n1				half-life [6]: > 45 min; half-life [7]: > 45 min; half-life [8]: > 45 min
CC(=O)Nc1nc2ccc(-c3cccnc3)cn2n1	0.251	15.8	> 31.6	Ratio IC50 (Homo sapiens [10]): > 60; Ratio IC50 (Homo sapiens [12]): > 60

More lines, main results first:

IC50 [1] [µM]	IC50 [2] [µM]	IC50 [3] [µM]	Compound	also measured
0.158	> 79.4	> 79.4	COc1cccc(-c2ccc3nc(NC(C)=O)nn3c2)c1	
3.16	> 100	> 100	CC(=O)Nc1nc2ccc(-c3cncc4ccccc34)cn2n1	
0.0398	0.316	2	COc1ccc(-c2ccc3nc(NC(C)=O)nn3c2)cc1OC	
3.98	> 15.8	> 100	CC(=O)Nc1nc2ccc(-c3cncnc3)cn2n1	
0.0398	> 3.16	3.16	CC(=O)Nc1nc2ccc(-c3cncc(S(=O)(=O)NCc4ccccc4)c3)cn2n1	
0.0158	3.16	> 6.31	Nc1nc2ccc(-c3cncc(S(=O)(=O)NCC4CC4)c3)cn2n1	IC50 [5]: 2 µM
0.0316	2.51	1.58	CC(C)NS(=O)(=O)c1cncc(-c2ccc3nc(N)nn3c2)c1	half-life [6]: > 45 min; half-life [7]: > 45 min; IC50 [5]: 1.58 µM; half-life [8]: > 45 min
2	> 100	> 100	CS(=O)(=O)c1cncc(-c2cc(Cl)c3nc(N)nn3c2)c1	IC50 [4]: > 100 µM
3.98	> 63.1	> 100	CC(=O)Nc1nc2ccc(-c3cnn(C)c3)cn2n1	
0.0631	> 3.98	> 10	COc1cncc(-c2ccc3nc(NC(C)=O)nn3c2)c1	
> 100	> 100	> 100	CC(=O)Nc1nc2cc(C)c(-c3cncc(S(C)(=O)=O)c3)cn2n1	IC50 [4]: 200 µM
0.398	0.2	> 20	CC(=O)Nc1nc2ccc(-c3ccsc3)cn2n1	
25.1	> 100	> 100	CC(C)(C)NS(=O)(=O)c1cncc(-c2cn3nc(N)nc3cc2F)c1	IC50 [4]: > 100 µM
0.251	> 20	7.94	Nc1nc2ccc(-c3cncc(S(=O)(=O)NCc4ccccc4)c3)cn2n1	IC50 [5]: 1.26 µM
> 39.8	> 100	> 100	CS(=O)(=O)Nc1nc2ccc(-c3cncc(S(C)(=O)=O)c3)cn2n1	
2	12.6	6.31	CC(=O)Nc1nc2ccc(-c3cc(C)c(O)c(C)c3)cn2n1	Ratio IC50 (Homo sapiens [10]): 6.3; Ratio IC50 (Homo sapiens [11]): 10; Ratio IC50 (Homo sapiens [12]): 5; IC50 [4]: 20 µM
